Test results taken from patent US10654868B2, “Dihydropyrazole azepine compound serving as Akt inhibitor” (HARBIN ZHENBAO PHARMACEUTICAL CO., LTD., priority 2016, dated 2020).

Assays:
[1] = molecular target: T1, Akt1 (Homo sapiens, UniProt P31749); assay: Akt1 kinase inhibition, LANCE TR-FRET; assay type: biochemical
T1 construct: purchased life technology lot11629928C (lot number only, catalogue number not given)
Experimental: (§1) Study 1: The Inhibitory Effect of the Compounds on the Activity of Akt1, Akt2 and Akt3
Akt1 protein (life technology # lot11629928C)
(§2) In this experiment, a homogeneous time-resolved fluorescence […] energy transfer (LANCE TR-FRET®) method was used. In the assay plate, enzymes, biotinylated polypeptide substrates and compound to be tested were mixed, and ATP was added to initiate the reaction and the mixture was incubated. After that, EDTA was added to terminate the reaction while an Eu-labeled antibody was added to carry out the reaction and the reaction was then detected. The assay plate was analyzed by PE company's Envision, and the analysis mode was TR-FRET. The data were represented by fluorescence signals at 665 nm and 615 nm, respectively.
(§3) Compound formulation: compound to be tested and the reference compound were diluted with 100% DMSO, the initial concentration of the compound was 10 uM, and diluted by 10 times in a 3-fold gradient. Transfer the compound to the cell plate and duplicate each well.
(§4) Kinase assay: the enzyme and substrate were mixed with different concentrations of pre-diluted compounds. […] Leave at room temperature for 15 min and diplicate each concentration. ATP was added, and the final concentrations were 36 uM, 360 uM and 160 uM in Akt1, Akt2, and Akt3 kinase reactions, respectively, and the reaction was carried out for 90 min at room temperature (in which negative and positive controls were set). After the reaction was completed, the antibody was added and the mixture was detected, and the cells were incubated for 60 min at room temperature, and then collected by Evnvision. Data analysis and fitting according to *Lfit5 software.

[2] = molecular target: T2, Akt2 (Homo sapiens, UniProt P31751); assay: Akt2 kinase inhibition, LANCE TR-FRET; assay type: biochemical; settings: Akt2 2 nM, ATP 360 uM, 90 min at room temperature
T2 construct: purchased life technology lot 28870GG (lot number only, catalogue number not given)
Experimental: as §1
Akt2 protein (life technology # lot 28870GG)
as §2, §3, §4

[3] = molecular target: T3, Akt3 (Homo sapiens, UniProt Q9Y243); assay: Akt3 kinase inhibition, LANCE TR-FRET; assay type: biochemical; settings: Akt3 2 nM, ATP 160 uM, 90 min at room temperature
T3 construct: purchased life technology lot 1715050B (lot number only, catalogue number not given)
Experimental: as §1
Akt3 protein (life technology # lot 1715050B)
as §2, §3, §4

[4] = test system: LNCaP cells; assay: LNCaP cell activity, CellTiter-Glo live cell detection; assay type: cell-based; settings: Homo sapiens, 72 h, 1000 cells per well, incubated 3 days, starting concentration 10 uM
Experimental: Study 2: inhibitory effects of compounds on LNCaP cell activity
The amount of ATP directly reflects the number and the state of the cells, and the number of live cells can be detected by quantitatively measuring ATP. The live cell assay kit contains luciferase and its substrate. Through the participation of ATP, luciferase can catalyze the substrate, emit a stable optical signal, and the amount of ATP in the cell was determined by detecting the intensity of the signal. Wherein, the optical signal is proportional to the amount of ATP in the cell, and ATP is positively correlated with the number of live cells, so that the cell proliferation can be detected. The assay board is analyzed by PE company's Envision.
LNCaP cell was separately seeded in a 384-well plate, each well contains 1000 cells. The cell plate was placed in a carbon dioxide incubator and incubated overnight.
A duplicated experiment was performed with 10 concentrations of compound in a 3-fold dilution with Bravo.
Compound was transferred to the cell plate with a starting concentration of 10 uM. The cell plate was incubated in a carbon dioxide incubator for 3 days.
The Promega CellTiter-Glo reagent was added to the cell plate and incubated for 10 min at room temperature to stabilize the optical signal. Read the data by a PerkinElmer Envision multi-label analyzer.

T3 sequence (Q9Y243 whole entry): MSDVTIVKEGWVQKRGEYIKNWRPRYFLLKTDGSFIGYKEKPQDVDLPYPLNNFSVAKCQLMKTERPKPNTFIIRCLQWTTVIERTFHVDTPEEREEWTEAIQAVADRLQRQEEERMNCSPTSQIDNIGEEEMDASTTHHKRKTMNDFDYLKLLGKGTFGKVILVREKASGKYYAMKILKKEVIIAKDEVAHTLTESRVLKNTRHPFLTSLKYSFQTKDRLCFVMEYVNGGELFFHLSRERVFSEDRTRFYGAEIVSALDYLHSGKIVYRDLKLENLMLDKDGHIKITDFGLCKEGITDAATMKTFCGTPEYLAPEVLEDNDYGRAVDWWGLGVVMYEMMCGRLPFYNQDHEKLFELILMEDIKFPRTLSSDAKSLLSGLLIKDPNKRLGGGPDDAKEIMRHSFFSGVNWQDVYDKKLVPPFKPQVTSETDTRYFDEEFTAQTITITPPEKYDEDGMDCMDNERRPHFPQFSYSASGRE
T2 sequence (P31751 whole entry): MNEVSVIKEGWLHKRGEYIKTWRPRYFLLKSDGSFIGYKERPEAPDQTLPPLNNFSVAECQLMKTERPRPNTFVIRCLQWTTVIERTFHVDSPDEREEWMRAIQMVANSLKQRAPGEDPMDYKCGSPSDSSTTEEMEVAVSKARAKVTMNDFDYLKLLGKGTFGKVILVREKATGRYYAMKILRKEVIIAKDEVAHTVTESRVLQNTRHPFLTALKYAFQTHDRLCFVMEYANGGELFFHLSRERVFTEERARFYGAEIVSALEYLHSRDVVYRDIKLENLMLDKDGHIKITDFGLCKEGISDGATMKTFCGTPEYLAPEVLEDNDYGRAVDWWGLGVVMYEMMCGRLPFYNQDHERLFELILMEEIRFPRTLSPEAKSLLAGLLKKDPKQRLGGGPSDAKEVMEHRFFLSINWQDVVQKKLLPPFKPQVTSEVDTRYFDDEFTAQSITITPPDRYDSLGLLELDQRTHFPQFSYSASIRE
T1 sequence (P31749 whole entry): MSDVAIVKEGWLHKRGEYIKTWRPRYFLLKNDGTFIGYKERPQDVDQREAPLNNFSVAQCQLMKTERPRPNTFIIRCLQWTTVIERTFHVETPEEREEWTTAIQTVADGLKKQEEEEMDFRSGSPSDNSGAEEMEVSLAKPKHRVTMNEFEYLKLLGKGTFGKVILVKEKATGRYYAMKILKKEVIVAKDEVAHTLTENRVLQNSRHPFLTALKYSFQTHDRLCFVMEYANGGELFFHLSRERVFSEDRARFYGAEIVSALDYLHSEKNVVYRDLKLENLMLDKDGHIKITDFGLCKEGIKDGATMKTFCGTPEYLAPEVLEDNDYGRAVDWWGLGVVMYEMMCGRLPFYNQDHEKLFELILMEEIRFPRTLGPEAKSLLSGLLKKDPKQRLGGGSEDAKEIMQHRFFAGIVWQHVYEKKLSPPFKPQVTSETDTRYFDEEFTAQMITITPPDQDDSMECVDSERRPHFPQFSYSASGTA

Structure (SMILES) | IC50 [1] [nM] | IC50 [2] [nM] | IC50 [3] [nM] | IC50 [4] [nM]
Cc1cnn2c1-c1cc(C(=O)N[C@H](CN)Cc3ccc(F)c(F)c3)sc1OCC2 [Embodiment 39] | 1.5 | 76 | 122 | 144
NC[C@H](Cc1cc(F)cc(F)c1)NC(=O)c1cc2c(s1)OCCn1ncc(Br)c1-2 [Embodiment 41] | 1.45 | 39 | 57 | 62
N#Cc1cnn2c1-c1cc(C(=O)N[C@H](CN)Cc3ccc(F)c(F)c3)sc1OCC2 [Embodiment 42] | 27.5 | 900 | 416 | 663

These reach a lower IC50 [1]. Values come first.

IC50 [1] [nM] | IC50 [2] [nM] | IC50 [3] [nM] | IC50 [4] [nM] | Structure (SMILES)
0.87 | 66 | 170 | 87 | Cc1cnn2c1-c1cc(C(=O)N[C@H](CN)Cc3cc(F)cc(F)c3)sc1OCC2 [Embodiment 40]
0.36 | 57 | 68 | 118 | NC[C@H](Cc1ccc(F)c(F)c1)NC(=O)c1cc2c(s1)OCCn1ncc(Cl)c1-2 [Embodiment 38]
